Earlier results on 1 compound are cited in US11065250B2, “Solid dosage forms of palbociclib” (PFIZER INC., priority 2015, dated 2021).

For data set [1] the following is noted: low pH (2.1-4.5).

Where two headings read alike, the source gives them in different places.

As to `CC(=O)c1c(C)c2cnc(Nc3ccc(N4CCNCC4)cn3)nc2n(C2CCCC2)c1=O` [Palbociclib, 6-acetyl-8-cyclopentyl-5-methyl-2-(5-piperazin-1-yl-pyridin-2-ylamino)-8H-pyrido[2,3-d]pyrimidin-7-one], the “pKa (pyridine nitrogen)” value is recorded as about 4.1 and the “pKa (secondary piperazine nitrogen)” value was “approximately 7.3”. In addition, where the note is “listed as palbociclib”, the “pKa (pyridine nitrogen)” value was “approximately 4.1” and the “pKa (secondary piperazine nitrogen)” value is about 7.3. For the same compound, the solubility in words result in data set [1] is reported as “water soluble”.
